Test results from patent US20260083674A1, “OXAZOLIDINONE LIPOSOME COMPOSITIONS” (priority 2021, published 2026).

Tests used:
[1] = male, Sprague-Dawley, rat, in vivo, po, 50 mg/kg
Method: For plasma drug measurements, 0.5 ml blood was collected in lithium heparin tubes at 5 min, 15 min, 1 h, 3 h, 6 h, 24 h, 48 h, and 72 h. The samples were centrifuged and the resultant plasma was separated and transferred to duplicate clear polypropylene tubes, frozen immediately over dry ice, and stored at −80° C. until analysis. The plasma concentration in rats was determined by HPLC. Non-compartment PK analyses were performed using Phoenix WinNonlin (Version 7.0).

M. tuberculosis Erdman = conditions: eight weeks, Balb/c and C3HeB/FeJ mice; cited from earlier work

In the case of `CC(=O)NC[C@H]1CN(c2ccc(N3CCOCC3)c(F)c2)C(=O)O1` [Linezolid], the AUC0-last/Dose [1] is listed as 5.64 [hr*μg/mL]/[mg/kg] and the “log 10 CFU counts, linezolid monotherapy (Lanoix et al.)” value (M. tuberculosis Erdman) is listed as 4-6 log 10 CFU.
